In patent US8617818B2, “Compositions and methods for diagnosis and prognosis of cancer and progression, and for screening anti-cancer agents” (Tufts Medical Center, priority 2009, dated 2013):

Tested on: MCF10A cells
Assay: Transwell migration assay
Assay type: cell-based, human
Conditions: TGFβ 20 ng/mL
Method: Transwell migration assays were performed according to Irie et al., 2005 J. Cell Biol. 171: 1023. MCF10A cells were transfected with a negative control siRNA designed to have no sequence similarity to a human transcript sequence (#AM4611) or siRNAs for Akt1 (#S660) or Akt2 (#S1216), or siRNAs for both Akt 1 and Akt2 (50 nM). Twenty four hours after transfection, cells were cultured overnight in assay medium (MCF10A growth medium containing 2% serum±TGFβ (20 ng/mL)). Sixteen hours later, cells were trypsinized and 10^5 cells were added to the top chambers of
24-well transwell plates (8 μm pore size; BD Bioscience, Bedford, Mass.). The bottom chambers were filled with assay medium. […] The significance of variability between a given group and its corresponding control was determined with the unpaired t test.
The mRNAs encoding Akt1 and Akt2, which are present in similar abundance in untransfected MCF10A cells (FIG. 10), were respectively knocked down by transfection with small interfering RNA (siRNA) directed against Akt1 or Akt2. […] After transfection with these siRNAs, the cells were analyzed for the abundance of Zeb1, Zeb2, and E-cadherin before and 24 hours after treatment with TGFβ. […] Parallel cultures of similarly treated cells were therefore used to measured cell migration by means of a Transwell cell migration assay.

TGFβ
enhancement of cell migration (Akt1 siRNA-transfected MCF10A cells): 22 times
enhancement of cell migration (untransfected MCF10A cells): 7.7 times
